Experimental findings from US8846704B2, “Thiopyrimidine-based compounds and uses thereof” (YM Biosciences Austraila Pty Ltd, priority 2007, dated 2014) are described below.

Some results are limits rather than exact numbers.

Common to all, as to assay type: cell-based
In assay [1] the target is T1, BaF3 TELJAK2 cells (BafT_J2) (Homo sapiens, UniProt O60674).
T1 construct: fused on or other part: TEL (ETV6) N-terminal part, coding nucleotides 1-487, serves as the oligomerising partner; It is fused through a Sal I site to the JAK2 kinase domain and expressed from pTRE2 in BaF3 cells bearing pTET-off; P41212 (Transcription factor ETV6)
In words: Cellular screening, BaF3 TEL:JAK2 cells, Alamar Blue. Particulars: 40 hr, read-out: BafT_J2 IC50_nM. In short, it runs like this:
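Tet-off BaF3 cells carrying a TEL (nt 1-487)–JAK2 kinase-domain fusion, grown factor-independently in DMEM with 10% Tet-approved FBS without WEHI 3B medium. Compounds were diluted to 20 μM in screening plates, and cells (50,000–200,000 cell/mL at 1.1×) were incubated 40 hr at 37 °C, 5% CO2. Alamar Blue was then added for 4-6 hours; read at 544 nm.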
(Alamar Blue is a resazurin reagent that responds to reducing activity.)

Another assay concerns CTLL2. As to the kind of experiment: Cellular screening, CTLL2 cells, Alamar Blue. To be noted: Mus musculus, CTLL-2, read-out: CTLL2 IC50_nM. A digest of the protocol:
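Viability is read with Alamar Blue at 544 nm, the dye added for the final 4-6 hours. Compounds were incubated for 40 hr with CTLL2 cells taken from late-log-phase culture, at 37° C in 5% CO2.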

In another assay the target is T2, BaF3 TELJAK3 cells (Homo sapiens, UniProt P52333).
T2 construct: fused on or other part: TEL (ETV6) N-terminal part, coding nucleotides 1-487, serves as the oligomerising partner; It is fused through a Sal I site to the JAK3 kinase domain and expressed from pTRE2 in BaF3 cells bearing pTET-off; P41212 (Transcription factor ETV6)
T2 sequence (P52333 1-1124): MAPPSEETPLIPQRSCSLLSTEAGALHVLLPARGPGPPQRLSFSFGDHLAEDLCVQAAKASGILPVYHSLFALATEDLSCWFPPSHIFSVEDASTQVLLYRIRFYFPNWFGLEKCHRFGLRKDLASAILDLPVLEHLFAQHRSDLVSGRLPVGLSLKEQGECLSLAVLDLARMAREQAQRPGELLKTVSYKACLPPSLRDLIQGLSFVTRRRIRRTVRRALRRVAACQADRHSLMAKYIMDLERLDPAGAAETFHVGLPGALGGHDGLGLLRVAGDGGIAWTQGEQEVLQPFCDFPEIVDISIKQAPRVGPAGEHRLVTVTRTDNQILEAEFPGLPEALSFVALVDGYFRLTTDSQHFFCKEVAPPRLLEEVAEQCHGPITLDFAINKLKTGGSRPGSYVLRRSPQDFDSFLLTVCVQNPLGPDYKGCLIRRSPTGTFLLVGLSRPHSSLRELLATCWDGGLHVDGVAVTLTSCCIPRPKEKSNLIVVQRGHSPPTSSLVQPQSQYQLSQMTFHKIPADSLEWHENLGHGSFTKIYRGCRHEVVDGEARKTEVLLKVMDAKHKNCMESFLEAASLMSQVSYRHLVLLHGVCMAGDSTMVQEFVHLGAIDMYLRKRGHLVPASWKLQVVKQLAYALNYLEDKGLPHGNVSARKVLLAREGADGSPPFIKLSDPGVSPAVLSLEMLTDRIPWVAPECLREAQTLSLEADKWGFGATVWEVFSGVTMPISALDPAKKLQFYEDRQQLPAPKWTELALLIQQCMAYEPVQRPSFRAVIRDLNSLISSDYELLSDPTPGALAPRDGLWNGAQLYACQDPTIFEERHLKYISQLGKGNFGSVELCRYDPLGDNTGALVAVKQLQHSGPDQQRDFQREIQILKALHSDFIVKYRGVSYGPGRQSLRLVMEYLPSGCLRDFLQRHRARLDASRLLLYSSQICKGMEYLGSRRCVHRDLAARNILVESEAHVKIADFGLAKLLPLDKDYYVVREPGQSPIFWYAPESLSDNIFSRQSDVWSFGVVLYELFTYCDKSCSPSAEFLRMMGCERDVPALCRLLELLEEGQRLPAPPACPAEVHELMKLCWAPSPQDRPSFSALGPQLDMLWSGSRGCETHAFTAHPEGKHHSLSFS
In words: Cellular screening, BaF3 TEL:JAK3 cells, Alamar Blue. To be noted: 40 hr, read-out: BafT_J3 IC50_nM. In short, it runs like this: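 Alamar Blue signal at 544 nm, developed for 4–6 h, measured viability after 40 h of compound treatment at 37 °C, 5% CO2. Cells were growth-factor-independent BaF3 lines transfected with a TEL/JAK3 kinase-domain fusion under tet-off control. They were cultured in DMEM, 10% Tet-approved FBS, lacking WEHI 3B conditioned medium.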

T1 sequence (O60674 whole entry, change not shown, the tested form may be a part): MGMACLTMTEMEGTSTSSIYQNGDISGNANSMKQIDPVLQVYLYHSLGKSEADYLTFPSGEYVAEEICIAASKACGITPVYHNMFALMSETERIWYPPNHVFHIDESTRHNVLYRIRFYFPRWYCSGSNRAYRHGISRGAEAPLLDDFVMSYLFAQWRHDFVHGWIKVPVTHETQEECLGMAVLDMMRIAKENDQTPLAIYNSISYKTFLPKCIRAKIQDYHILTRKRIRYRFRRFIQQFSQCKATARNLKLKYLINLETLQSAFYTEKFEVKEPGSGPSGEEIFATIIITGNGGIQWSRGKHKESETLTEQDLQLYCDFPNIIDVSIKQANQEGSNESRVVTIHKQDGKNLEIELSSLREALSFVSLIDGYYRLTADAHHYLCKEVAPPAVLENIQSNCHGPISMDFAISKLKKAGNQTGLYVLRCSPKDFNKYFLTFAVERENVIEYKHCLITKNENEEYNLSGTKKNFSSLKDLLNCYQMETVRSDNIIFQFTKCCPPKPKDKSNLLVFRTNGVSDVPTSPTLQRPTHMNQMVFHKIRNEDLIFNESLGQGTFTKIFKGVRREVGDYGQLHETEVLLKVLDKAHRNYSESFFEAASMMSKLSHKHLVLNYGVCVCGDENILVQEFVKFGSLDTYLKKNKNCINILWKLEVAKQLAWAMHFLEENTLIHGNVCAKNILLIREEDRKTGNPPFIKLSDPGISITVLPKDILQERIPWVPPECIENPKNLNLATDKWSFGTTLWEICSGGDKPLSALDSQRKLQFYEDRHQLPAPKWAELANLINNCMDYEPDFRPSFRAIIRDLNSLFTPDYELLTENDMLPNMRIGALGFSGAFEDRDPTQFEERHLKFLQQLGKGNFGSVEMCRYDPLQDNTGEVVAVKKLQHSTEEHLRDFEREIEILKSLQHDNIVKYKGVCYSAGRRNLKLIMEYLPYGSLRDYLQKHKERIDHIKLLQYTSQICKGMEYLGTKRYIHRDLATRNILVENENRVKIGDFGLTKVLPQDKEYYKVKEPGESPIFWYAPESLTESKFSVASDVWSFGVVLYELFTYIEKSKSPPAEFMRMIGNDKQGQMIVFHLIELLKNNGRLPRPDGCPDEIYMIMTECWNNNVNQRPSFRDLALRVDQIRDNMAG

On to `C=CC(=O)Nc1cccc(Nc2nccc(Sc3cccc(OC)c3)n2)c1` [Compound 31, N-(3-(4-(3-methoxyphenylthio)pyrimidin-2-ylao)phenyl)acrylamide], for which the GI50 in assay [1] is less than 20 µM; at BaF3 TELJAK3 cells, less than 1 µM. For the same compound, the IC50 with CTLL2 was less than 1 µM.

Regarding `COc1cc(Nc2nccc(Sc3ccc(NCC#N)cc3)n2)cc(OC)c1OC` [Compound 52, 2-(4-(2-(3,4,5-trimethoxyphenylao)pyrimidin-4-ylthio)phenylao)acetonitrile], the GI50 (in assay [1]; on BaF3 TELJAK3 cells) was less than 5 µM throughout.

Regarding `C=CC(=O)Nc1ccc(Sc2ccnc(Nc3ccc(OC)cc3)n2)cc1` [Compound 74, N-(4-(2-(4-methoxyphenylao)pyrimidin-4-ylthio)phenyl)acrylamide], the GI50 was more than 20 µM in assay [1] and less than 1 µM on BaF3 TELJAK3 cells. In the assay with CTLL2, the IC50 is less than 5 µM.

On to `CC(=O)Nc1ccc(Sc2ccnc(Nc3ccc(N4CCC(N5CCCC5)CC4)cc3)n2)cc1` [Compound 86, N-(4-(2-(4-(4-(pyrrolidin-1-yl)piperidin-1-yl)phenylao)pyrimidin-4-ylthio)phenyl)acetamide], for which the GI50 was less than 20 µM in assay [1] and less than 5 µM on BaF3 TELJAK3 cells. The IC50 in the assay on CTLL2 was less than 5 µM.

Take `C=CC(=O)Nc1ccc(Sc2ccnc(Nc3ccc(N4CCC(N5CCCC5)CC4)cc3)n2)cc1` [Compound 87, N-(4-(2-(4-(4-(pyrrolidin-1-yl)piperidin-1-yl)phenylao)pyrimidin-4-ylthio)phenyl)acrylamide]: the GI50 is less than 5 µM in assay [1] and less than 1 µM on BaF3 TELJAK3 cells. The IC50 in the assay on CTLL2 is less than 1 µM.

In the case of `N#CCC(=O)Nc1ccc(Sc2ccnc(Nc3ccc(N4CCC(N5CCCC5)CC4)cc3)n2)cc1` [Compound 88, 2-cyano-N-(4-(2-(4-(4-(pyrrolidin-1-yl)piperidin-1-yl)phenylao)pyrimidin-4-ylthio)phenyl)acetamide], the GI50 (in assay [1]; on BaF3 TELJAK3 cells) was less than 5 µM each time. The IC50 with CTLL2 was less than 20 µM.

Take `C=CC(=O)N(C)c1ccc(Sc2ccnc(Nc3ccc(N4CCOCC4)cc3)n2)cc1` [Compound 91, N-methyl-N-(4-(2-(4-morpholinophenylao)pyrimidin-4-ylthio)phenyl)acrylamide]: the GI50 in assay [1] was less than 20 µM; at BaF3 TELJAK3 cells, less than 1 µM. In addition, the IC50 in the assay on CTLL2 is less than 1 µM.

Consider `C=CC(=O)Nc1ccc(Sc2ccnc(Nc3ccc(OC)c(O)c3)n2)cc1` [Compound 97], for which the GI50 is less than 5 µM in assay [1] and less than 1 µM on BaF3 TELJAK3 cells. Moreover, the IC50 in the assay on CTLL2 is less than 1 µM.

As to `C=CC(=O)Nc1ccc(Sc2ccnc(Nc3ccc(N4CCS(=O)(=O)CC4)cc3)n2)cc1` [Compound 99, N-{4-[(2-{[4-(1,1-dioxo-1λ^6,4-thiomorpholin-4-yl)phenyl]ao}pyrimidin-4-yl)sulfanyl]phenyl}prop-2-enamide], the GI50 is more than 20 µM in assay [1] and less than 1 µM on BaF3 TELJAK3 cells.

Turning to `COc1ccc(Nc2nccc(Sc3ccc(NC(=O)CC#N)cc3)n2)cc1OC` [Compound 101, 2-cyano-N-(4-(2-(3,4-dimethoxyphenylao)pyrimidin-4-ylthio)phenyl)acetamide], the figures for the GI50 (in assay [1]; on BaF3 TELJAK3 cells) were less than 5 µM and less than 1 µM, respectively. Also, in the assay with CTLL2, the IC50 was less than 20 µM.

Take `CC#CC(=O)Nc1ccc(Sc2ccnc(Nc3ccc(N4CCOCC4)cc3)n2)cc1` [Compound 104, N-(4-(2-(4-morpholinophenylao)pyrimidin-4-ylthio)phenyl)but-2-ynamide]: the figures for the GI50 (in assay [1]; at BaF3 TELJAK3 cells) were more than 20 µM and less than 5 µM, respectively. Besides, the IC50 with CTLL2 was less than 5 µM.

For `C=CC(=O)Nc1ccc(Sc2ccnc(Nc3cccc(OC)c3)n2)cc1` [Compound 105, N-(4-(2-(3-methoxyphenylao)pyrimidin-4-ylthio)phenyl)acrylamide], the results for the GI50 (in assay [1]; at BaF3 TELJAK3 cells) were less than 20 µM and less than 1 µM, respectively. Besides, the IC50 with CTLL2 was less than 20 µM.

As for `COc1cc(Sc2ccnc(Nc3ccc(N4CCOCC4)cc3)n2)ccc1N` [Compound 117, 4-(4-ao-3-methoxyphenylthio)-N-(4-morpholinophenyl)pyrimidin-2-ae], the GI50 in assay [1] was less than 20 µM; on BaF3 TELJAK3 cells, more than 20 µM. Further, the IC50 in the assay with CTLL2 is less than 20 µM.

Take `C=CC(=O)Nc1ccc(Sc2ccnc(Nc3cccc(C#N)c3)n2)cc1` [Compound 118, N-(4-(2-(3-cyanophenylao)pyrimidin-4-ylthio)phenyl)acrylamide]: the GI50 (in assay [1]; at BaF3 TELJAK3 cells) was less than 5 µM throughout. Moreover, the IC50 in the assay on CTLL2 is more than 20 µM.

For `C=CC(=O)Nc1cccc(Sc2ccnc(Nc3ccc(OC)cc3)n2)c1` [Compound 120, N-(3-(2-(4-methoxyphenylao)pyrimidin-4-ylthio)phenyl)acrylamide], the GI50 in assay [1] was less than 20 µM; on BaF3 TELJAK3 cells, less than 1 µM. For the same compound, the IC50 in the assay with CTLL2 is less than 5 µM.

In the case of `C=CC(=O)Nc1ccc(Sc2nc(Nc3ccc(N4CCOCC4)cc3)ncc2C)cc1` [Compound 124, N-(4-(5-methyl-2-(4-morpholinophenylao)pyrimidin-4-ylthio)phenyl)acrylamide], the GI50 is more than 20 µM in assay [1] and less than 1 µM at BaF3 TELJAK3 cells. Also, the IC50 with CTLL2 is less than 1 µM.

As for `CC#CC(=O)Nc1ccc(Sc2nc(Nc3ccc(N4CCOCC4)cc3)ncc2C)cc1` [Compound 125, N-(4-(5-methyl-2-(4-morpholinophenylao)pyrimidin-4-ylthio)phenyl)but-2-ynamide], the GI50 in assay [1] was less than 20 µM; on BaF3 TELJAK3 cells, less than 5 µM. For the same compound, in the assay on CTLL2, the IC50 was less than 5 µM.

For the compound `Cc1cnc(Nc2ccc(N3CCOCC3)cc2)nc1Sc1ccc(N)cc1` [Compound 126, 4-(4-aophenylthio)-5-methyl-N-(4-morpholinophenyl)pyrimidin-2-ae], the GI50 (in assay [1]; at BaF3 TELJAK3 cells) was less than 5 µM throughout. The IC50 with CTLL2 was less than 5 µM.

For `c1cn(Cc2ccc(Sc3ccnc(Nc4ccc(N5CCOCC5)cc4)n3)cc2)cn1` [Compound 127, 4-(4-((1H-imidazol-1-yl)methyl)phenylthio)-N-(4-morpholinophenyl)pyrimidin-2-ae], the GI50 (in assay [1]; at BaF3 TELJAK3 cells) was less than 20 µM each time. The IC50 in the assay on CTLL2 is less than 20 µM.

As to `CC(=O)Nc1ccc(Sc2nc(Nc3ccc(N4CCOCC4)cc3)ncc2C)cc1` [Compound 135, N-(4-(5-methyl-2-(4-morpholinophenylao)pyrimidin-4-ylthio)phenyl)acetamide], the results for the GI50 (in assay [1]; at BaF3 TELJAK3 cells) were less than 20 µM and more than 20 µM, respectively.

Turning to `C=CC(=O)Nc1ccc(Sc2nc(Nc3ccccc3O)ncc2C)cc1` [Compound 287, N-(4-(2-(2-hydroxyphenylao)-5-methylpyrimidin-4-ylthio)phenyl)acrylamide], the GI50 in assay [1] was more than 20 µM; at BaF3 TELJAK3 cells, less than 20 µM.

With `C=CC(=O)Nc1ccc(Sc2ccnc(Nc3cccc(Cl)c3)n2)cc1` [Compound 348, N-(4-(2-(3-chlorophenylao)pyrimidin-4-ylthio)phenyl)acrylamide], the GI50 (in assay [1]; at BaF3 TELJAK3 cells) was less than 5 µM each time.

Consider `C=CC(=O)Nc1ccc(Sc2ccnc(Nc3ccc(C(=O)OC)cc3)n2)cc1` [Compound 357, methyl 4-(4-(4-acrylamidophenylthio)pyrimidin-2-ylao)benzoate], for which the GI50 (in assay [1]; on BaF3 TELJAK3 cells) was less than 5 µM throughout.
